Data: US7902373B2 (Pfizer Inc, priority 2006, dated 2011)

biological target: human recombinant H-PGDS (Homo sapiens, UniProt O60760); assay: Fluorescence intensity h-PGDS TBA enzyme assay; type: biochemical; conditions: Examples up to 622 (and 3a, 3b)
Sequence (O60760 whole entry): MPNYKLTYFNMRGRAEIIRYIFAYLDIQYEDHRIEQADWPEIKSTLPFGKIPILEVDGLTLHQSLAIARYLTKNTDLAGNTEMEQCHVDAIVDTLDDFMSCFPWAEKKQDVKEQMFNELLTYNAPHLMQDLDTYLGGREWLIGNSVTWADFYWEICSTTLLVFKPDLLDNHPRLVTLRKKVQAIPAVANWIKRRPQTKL

Point of comparison: `Cc1c(CN2CCC(NC(=O)c3ccc(-c4cccc(F)c4)nc3)CC2)cnn1-c1ccccc1` [Example 356, 6-(3-Fluorophenyl)-N-{1-[(5-methyl-1-phenyl-1H-pyrazol-4-yl)methyl]piperidin-4-yl}nicotinamide], IC50 2 nM. Against it:
- Cc1onc(-c2ccccc2)c1CN1CCC(NC(=O)c2ccc(-c3cccc(F)c3)nc2)CC1 [Example 344, 6-(3-Fluorophenyl)-N-{1-[(5-methyl-3-phenylisoxazol-4-yl)methyl]piperidin-4-yl}nicotinamide] — 11-fold lower, 0.174 nM
- CC(C)(C)OC(=O)N1CCC(CN2CCC(NC(=O)c3ccc(-c4cccc(F)c4)nc3)CC2)C1 (stereo not drawn) [Example 345, tert-Butyl 3-{[4-({[6-(3-fluorophenyl)pyridin-3-yl]carbonyl}amino)piperidin-1-yl]methyl}pyrrolidine-1-carboxylate] — 3.9-fold lower, 0.508 nM
- CC(C)(C)C(=O)Nc1ncccc1CN1CCC(NC(=O)c2ccc(-c3cccc(F)c3)nc2)CC1 [Example 346, N-[1-({2-[(2,2-Dimethylpropanoyl)amino]pyridin-3-yl}methyl)piperidin-4-yl]-6-(3-fluorophenyl)nicotinamide] — 2-fold higher, 4.07 nM
- CC(C)(CNC(=O)OC(C)(C)C)CN1CCC(NC(=O)c2ccc(-c3cccc(F)c3)nc2)CC1 [Example 347, tert-Butyl {3-[4-({[6-(3-fluorophenyl)pyridin-3-yl]carbonyl}amino)piperidin-1-yl]-2,2-dimethylpropyl}carbamate] — 3.5-fold lower, 0.578 nM
- O=C(NC1CCN(Cc2c(F)c(F)cc(F)c2F)CC1)c1ccc(-c2cccc(F)c2)nc1 [Example 348, 6-(3-Fluorophenyl)-N-[1-(2,3,5,6-tetrafluorobenzyl)piperidin-4-yl]nicotinamide] — 3.3-fold lower, 0.612 nM
- O=C(NC1CCN(Cc2c[nH]c3c(F)c(F)c(F)c(F)c23)CC1)c1ccc(-c2cccc(F)c2)nc1 [Example 349, 6-(3-Fluorophenyl)-N-{1-[(4,5,6,7-tetrafluoro-1H-indol-3-yl)methyl]piperidin-4-yl}nicotinamide] — within 1.5-fold, 2.96 nM
- O=C(NC1CCN(CC2CCOC2)CC1)c1ccc(-c2cccc(F)c2)nc1 (stereo not drawn) [Example 350, 6-(3-Fluorophenyl)-N-[1-(tetrahydrofuran-3-ylmethyl)piperidin-4-yl]nicotinamide] — 8.1-fold lower, 0.247 nM
- Cc1cc(CN2CCC(NC(=O)c3ccc(-c4cccc(F)c4)nc3)CC2)no1 [Example 351, 6-(3-Fluorophenyl)-N-{1-[(5-methylisoxazol-3-yl)methyl]piperidin-4-yl}nicotinamide] — 3.8-fold lower, 0.531 nM
- Cn1nccc1CN1CCC(NC(=O)c2ccc(-c3cccc(F)c3)nc2)CC1 [Example 352, 6-(3-Fluorophenyl)-N-{1-[(1-methyl-1H-pyrazol-5-yl)methyl]piperidin-4-yl}nicotinamide] — 3.2-fold lower, 0.625 nM
- COc1ccc(CN2CCC(NC(=O)c3ccc(-c4cccc(F)c4)nc3)CC2)cn1 [Example 353, 6-(3-Fluorophenyl)-N-{1-[(6-methoxypyridin-3-yl)methyl]piperidin-4-yl}nicotinamide] — 2.1-fold lower, 0.959 nM
- Cc1ccc(CN2CCC(NC(=O)c3ccc(-c4cccc(F)c4)nc3)CC2)cn1 [Example 354, 6-(3-Fluorophenyl)-N-{1-[(6-methylpyridin-3-yl)methyl]piperidin-4-yl}nicotinamide] — within 1.5-fold, 2.92 nM
- Cc1cc(CN2CCC(NC(=O)c3ccc(-c4cccc(F)c4)nc3)CC2)ccn1 [Example 355, 6-(3-Fluorophenyl)-N-{1-[(2-methylpyridin-4-yl)methyl]piperidin-4-yl}nicotinamide] — 3.9-fold lower, 0.513 nM
- Cc1nc(-c2ccccc2)ncc1CN1CCC(NC(=O)c2ccc(-c3cccc(F)c3)nc2)CC1 [Example 357, 6-(3-Fluorophenyl)-N-{1-[(4-methyl-2-phenylpyrimidin-5-yl)methyl]piperidin-4-yl}nicotinamide] — 3.3-fold higher, 6.66 nM
- O=C(NC1CCN(Cc2ccc(Oc3ccccc3)nc2)CC1)c1ccc(-c2cccc(F)c2)nc1 [Example 358, 6-(3-Fluorophenyl)-N-{1-[(6-phenoxypyridin-3-yl)methyl]piperidin-4-yl}nicotinamide] — within 1.5-fold, 1.72 nM
